Results taken from ChEMBL document CHEMBL2021919, “Computational analysis of structure-based interactions and ligand properties can predict efflux effects on antibiotics” (2012).
≈ marks a conversion by molar mass, not a printed value.

Tests used:
Salmonella typhimurium = experiment: Ratio of MIC for wild type Salmonella typhimurium SH5014 to MIC for Salmonella typhimurium SH7616 harboring missense mutation in acrA/acrB gene by two-fold serial dilution method; type: functional, Salmonella enterica subsp. enterica serovar Typhimurium
Escherichia coli [1] = experiment: Antimicrobial activity against wild type Escherichia coli expressing AcrAB-TolC efflux pump; type: functional
Escherichia coli [2] = experiment: Ratio of MIC for wild type Escherichia coli JC7623 to MIC for acrAB-deficient Escherichia coli JZM120; type: functional
Escherichia coli [3] = experiment: Ratio of MIC for wild type Escherichia coli TG1 to MIC for acrB-deficient Escherichia coli KAM3 by two-fold serial dilution method; type: functional
Escherichia coli [4] = experiment: Ratio of MIC for wild type Escherichia coli HS414 to MIC for acrB-deficient Escherichia coli HS832 by agar dilution method; type: functional
Escherichia coli [5] = experiment: Ratio of MIC for wild type Escherichia coli ECM1194 to MIC for acrAB-deficient Escherichia coli ECM1694; type: functional

| Structure (SMILES) | Ratio (Salmonella typhimurium) | MIC (Escherichia coli [1]) | Ratio (Escherichia coli [2]) | Ratio (Escherichia coli [3]) | Ratio (Escherichia coli [4]) | Ratio (Escherichia coli [5]) |
| --- | --- | --- | --- | --- | --- | --- |
| CO/N=C(\C(=O)N[C@@H]1C(=O)N2C(C(=O)[O-])=C(C[N+]3(C)CCCC3)CS[C@H]12)c1csc(N)n1 | 1 | 0.0075 µg/mL (≈ 0.0156 µM) | 1 |  |  |  |
| CC1(C)S[C@@H]2[C@H](NC(=O)CCC[C@@H](N)C(=O)O)C(=O)N2[C@H]1C(=O)O [ADICILLIN] | 1 | 8 µg/mL (≈ 22.3 µM) |  |  |  |  |
| CC1(C)S[C@@H]2[C@H](/N=C/N3CCCCCC3)C(=O)N2[C@H]1C(=O)O [AMDINOCILLIN] |  | 0.5 µg/mL (≈ 1.54 µM) | 2 |  |  |  |
| CC1(C)S[C@@H]2[C@H](NC(=O)[C@H](N)c3ccc(O)cc3)C(=O)N2[C@H]1C(=O)O [AMOXICILLIN] |  | 4 µg/mL (≈ 10.9 µM) | 1 |  |  |  |
| CC1(C)S[C@@H]2[C@H](NC(=O)[C@H](NC(=O)N3CCNC3=O)c3ccccc3)C(=O)N2[C@H]1C(=O)O [AZLOCILLIN] |  | 16 µg/mL (≈ 34.7 µM) | 4 |  |  |  |
| C[C@H]1[C@H](NC(=O)/C(=N\OC(C)(C)C(=O)O)c2csc(N)n2)C(=O)N1S(=O)(=O)O [AZTREONAM] |  | 0.05 µg/mL (≈ 0.115 µM) |  | 1 |  |  |
| CC1(C)S[C@@H]2[C@H](NC(=O)C(C(=O)O)c3ccccc3)C(=O)N2[C@H]1C(=O)O (stereo partly specified) [CARBENICILLIN] | 4 | 1.56 µg/mL (≈ 4.12 µM) | 1 | 1 |  |  |
| Cn1nnnc1SCC1=C(C(=O)O)N2C(=O)[C@@H](NC(=O)[C@H](O)c3ccccc3)[C@H]2SC1 [CEFAMANDOLE] |  | 4 µg/mL (≈ 8.65 µM) | 4 | 4 |  |  |
| Cc1nnc(SCC2=C(C(=O)O)N3C(=O)[C@@H](NC(=O)Cn4cnnn4)[C@H]3SC2)s1 [CEFAZOLIN] | 1 | 0.39 µg/mL (≈ 0.858 µM) | 1 |  |  |  |
| CO[C@@]1(NC(=O)CSCC#N)C(=O)N2C(C(=O)O)=C(CSc3nnnn3C)CS[C@@H]21 [CEFMETAZOLE] | 1 | 0.05 µg/mL (≈ 0.106 µM) | 1 | 2 |  |  |
| CCN1CCN(C(=O)N[C@@H](C(=O)N[C@@H]2C(=O)N3C(C(=O)O)=C(CSc4nnnn4C)CS[C@H]23)c2ccc(O)cc2)C(=O)C1=O [CEFOPERAZONE] |  | 0.03 µg/mL (≈ 0.0465 µM) | 2 |  |  |  |
| CO/N=C(\C(=O)N[C@@H]1C(=O)N2C(C(=O)O)=C(COC(C)=O)CS[C@H]12)c1csc(N)n1 [CEFOTAXIME] | 4 | 0.12 µg/mL (≈ 0.263 µM) |  | 2 |  |  |
| CO[C@@]1(NC(=O)Cc2cccs2)C(=O)N2C(C(=O)O)=C(COC(N)=O)CS[C@@H]21 [CEFOXITIN] | 4 | 4 µg/mL (≈ 9.36 µM) | 4 |  |  |  |
| CO/N=C(\C(=O)N[C@@H]1C(=O)N2C(C(=O)[O-])=C(C[n+]3cccc4c3CCC4)CS[C@H]12)c1csc(N)n1 [CEFPIROME] |  | 0.015 µg/mL (≈ 0.0291 µM) | 1 |  |  |  |
| NC(=O)c1cc[n+](CC2=C(C(=O)[O-])N3C(=O)[C@@H](NC(=O)[C@@H](c4ccccc4)S(=O)(=O)O)[C@H]3SC2)cc1 [CEFSULODIN] | 1 | 16 µg/mL (≈ 30 µM) | 1 |  |  |  |
| CC(C)(O/N=C(\C(=O)N[C@@H]1C(=O)N2C(C(=O)[O-])=C(C[n+]3ccccc3)CS[C@H]12)c1csc(N)n1)C(=O)O [CEFTAZIDIME] |  | 0.12 µg/mL (≈ 0.22 µM) | 1 |  |  |  |
| CO/N=C(\C(=O)N[C@@H]1C(=O)N2C(C(=O)O)=C(CSc3nc(=O)c(O)nn3C)CS[C@H]12)c1csc(N)n1 [CEFTRIAXONE] | 2 | 0.015 µg/mL (≈ 0.027 µM) | 1 |  |  |  |
| CO/N=C(\C(=O)N[C@@H]1C(=O)N2C(C(=O)O)=C(COC(N)=O)CS[C@H]12)c1ccco1 [CEFUROXIME] |  | 1.56 µg/mL (≈ 3.68 µM) | 16 | 8 |  |  |
| O=C(Cc1cccs1)N[C@@H]1C(=O)N2C(C(=O)[O-])=C(C[n+]3ccccc3)CS[C@H]12 [CEPHALORIDINE] | 2 | 2 µg/mL (≈ 4.81 µM) | 2 |  |  |  |
| CC(=O)OCC1=C(C(=O)O)N2C(=O)[C@@H](NC(=O)CCC[C@@H](N)C(=O)O)[C@H]2SC1 [CEPHALOSPORIN C] | 1 | 16 µg/mL (≈ 38.5 µM) |  |  |  |  |
| CC(=O)OCC1=C(C(=O)O)N2C(=O)[C@@H](NC(=O)Cc3cccs3)[C@H]2SC1 [CEPHALOTHIN] |  | 2 µg/mL (≈ 5.04 µM) |  |  |  |  |

| Structure (SMILES) | Ratio (Salmonella typhimurium) | MIC (Escherichia coli [1]) | Ratio (Escherichia coli [2]) | Ratio (Escherichia coli [3]) | Ratio (Escherichia coli [4]) | Ratio (Escherichia coli [5]) |
| --- | --- | --- | --- | --- | --- | --- |
| O=C(N[C@H](CO)[C@H](O)c1ccc([N+](=O)[O-])cc1)C(Cl)Cl [CHLORAMPHENICOL] |  | 4 µg/mL (≈ 12.4 µM) |  |  | 8 | 4 |
| Cc1onc(-c2ccccc2Cl)c1C(=O)N[C@@H]1C(=O)N2[C@@H]1SC(C)(C)[C@@H]2C(=O)O [CLOXACILLIN] | 256 | 256 µg/mL (≈ 587 µM) | 128 | 128 |  |  |
| C[n+]1c2cc(N)ccc2cc2ccc(N)cc21.[Cl-] [EUFLAVINE] |  | 400 µg/mL |  |  | 128 |  |
| C[C@@H](O)[C@H]1C(=O)N2C(C(=O)O)=C([C@H]3CCCO3)S[C@H]12 [FAROPENEM] |  | 0.39 µg/mL (≈ 1.37 µM) |  | 4 |  |  |
| CS(=O)(=O)c1ccc([C@@H](O)[C@@H](CF)NC(=O)C(Cl)Cl)cc1 [FLORFENICOL] |  | 6.25 µg/mL (≈ 17.4 µM) |  |  | 8 |  |
| CC[n+]1c(-c2ccccc2)c2cc(N)ccc2c2ccc(N)cc21.[Br-] [HOMIDIUM BROMIDE] |  | 800 µg/mL |  |  | 256 |  |
| CN(Cc1cnc2nc(N)nc(N)c2n1)c1ccc(C(=O)N[C@@H](CCC(=O)O)C(=O)O)cc1 [METHOTREXATE] |  | 640 µg/mL (≈ 1410 µM) |  |  | 8 |  |
| CC1(C)S[C@@H]2[C@H](NC(=O)[C@H](NC(=O)N3CCN(S(C)(=O)=O)C3=O)c3ccccc3)C(=O)N2[C@H]1C(=O)O [MEZLOCILLIN] |  | 1 µg/mL (≈ 1.85 µM) | 32 |  |  |  |
| CO[C@@]1(NC(=O)C(C(=O)[O-])c2ccc(O)cc2)C(=O)N2C(C(=O)[O-])=C(CSc3nnnn3C)CO[C@@H]21.[Na+].[Na+] (stereo partly specified) [MOXALACTAM DISODIUM] | 1 | 0.12 µg/mL |  |  |  |  |
| CCOc1ccc2ccccc2c1C(=O)N[C@@H]1C(=O)N2[C@@H]1SC(C)(C)[C@@H]2C(=O)O [NAFCILLIN] |  | 200 µg/mL (≈ 483 µM) |  | 128 |  |  |
| CCn1cc(C(=O)O)c(=O)c2ccc(C)nc21 [NALIDIXIC ACID] |  | 3.12 µg/mL (≈ 13.5 µM) |  |  | 2 |  |
| CCn1cc(C(=O)O)c(=O)c2cc(F)c(N3CCNCC3)cc21 [NORFLOXACIN] |  | 0.004 µg/mL (≈ 0.0125 µM) |  |  | 1 |  |
| CO[C@@H]1[C@@H](OC(N)=O)[C@@H](O)[C@H](Oc2ccc3c(O)c(NC(=O)c4ccc(O)c(CC=C(C)C)c4)c(=O)oc3c2C)OC1(C)C [NOVOBIOCIN] |  | 32 µg/mL (≈ 52.2 µM) | 32 | 64 | 64 |  |
| Cc1onc(-c2ccccc2)c1C(=O)N[C@@H]1C(=O)N2[C@@H]1SC(C)(C)[C@@H]2C(=O)O [OXACILLIN] |  | 1020 µg/mL (≈ 2550 µM) | 512 | 256 |  |  |
| CC1(C)S[C@@H]2[C@H](NC(=O)Cc3ccccc3)C(=O)N2[C@H]1C(=O)O [PENICILLIN G] | 32 | 8 µg/mL (≈ 23.9 µM) | 2 |  |  |  |
| CCN1CCN(C(=O)N[C@@H](C(=O)N[C@@H]2C(=O)N3[C@@H]2SC(C)(C)[C@@H]3C(=O)O)c2ccccc2)C(=O)C1=O [PIPERACILLIN] |  | 4 µg/mL (≈ 7.73 µM) |  |  |  |  |
| Nc1ccc2cc3ccc(N)cc3nc2c1 [PROFLAVINE] |  | 100 µg/mL (≈ 478 µM) |  |  | 8 |  |
| CC1(C)S[C@@H]2[C@H](NC(=O)C(c3ccccc3)S(=O)(=O)O)C(=O)N2[C@H]1C(=O)O (stereo partly specified) [SULBENICILLIN] | 4 | 8 µg/mL (≈ 19.3 µM) |  | 1 |  |  |
| CC(=O)NS(=O)(=O)c1ccc(N)cc1 [SULFACETAMIDE] |  | 2000 µg/mL (≈ 9340 µM) |  |  | 1 |  |
| CN(C)[C@@H]1C(O)=C(C(N)=O)C(=O)[C@@]2(O)C(O)=C3C(=O)c4c(O)cccc4[C@@](C)(O)[C@H]3C[C@@H]12 [TETRACYCLINE] |  | 1.25 µg/mL (≈ 2.81 µM) |  |  | 8 |  |
